# Read-outs that look alike come from different tables or passages of the source.
# Tests used:
# [1] = target: Src kinase (Homo sapiens, UniProt P12931); conditions: cited from earlier work
# [2] = system: P38MAP kinase; conditions: cited from earlier work
# [3] = animal disease models; cited from earlier work
# [4] = system: NETosis in Neutrophils (H3R8 citrullinated nucleosomes); experiment: NETosis quantified by release of H3R8 citrullinated nucleosomes from stimulated neutrophils; format: cell-based, human; conditions: for citrullinated nucleosomes: 4 hours
# [5] = system: Neutrophils (NETosis); format: cell-based, human
# Method: Neutrophils, isolated as described in Example 4 (or by equivalent methodology as known in the art, for example, Ficoll Density gradient and dextran sedimentation followed by Red blood cell lysis with hypertonic solution) are resuspended in phenol red free RPMI 1640 media at a density of 2×10^6 cells per milliliter and incubated for five minutes in the dark at room temperature with NUCLEAR-ID Red (membrane impermeable) DNA dye to stain nuclei (1 ml/1.5 ml of cell suspension; Enzo Life Sciences). Cells are washed three times to remove free Dye by centrifuging at 2400 RFI for 5 min to pellet the cells and replacing supernatant with 1 ml fresh phenol red free RPMI 1640 media. […]
# Neutrophils are imaged within 10 min of plating using phase contrast, red (800-ms exposure), and green (400-ms exposure) channels in an IncuCyte ZOOM platform, housed inside an incubator at 37° C. with 5% CO2. […] The Number of neutrophils is then calculated as the average red count for the three images per well and the Number of green cells calculated as the average green count. The percentage of neutrophils undergoing NETosis is calculated as the average green count divide by the average red count at each time point measured.
# [6] = system: TMPRSS2; format: cell-based, human; conditions: for TMPRSS2 protein expression: relative to non-DHT stimulated control
# Method: (§1) LNCaP and A549 cells were seeded at a density of 1×10^6 in 6-well plates and incubated for 72 hours in phenol red free RPM1-1640 and DMEM media (Lonza), supplemented with 5% and 2% double charcoal stripped FCS (First Link UK) respectively, and 2 mM I-glutamine, 100 units/ml penicillin and […] streptomycin (Sigma). Cells were treated with 100 ng/ml Epithelial Growth Factor (EGF, Sigma) or 1 nM DHT (dihydrotestosterone, Sigma) ±SA Inhibitor for 72 hrs. Cells were harvested and proteins separated using SDS-PAGE. Blots were probed with antibodies specific for TMPRSS2 (ab92323, Abcam) and α-tubulin (B-5-1-2, Sigma). Protein levels were visualized using a chemiluminescence imaging system (Fusion FX, Vilber). Densitometry was performed using Image J and TMPRSS2 levels normalised to the internal control (Tubulin).
# [7] = system: ACE2; conditions: 6 hrs
# Method: (§2) LNCaP (prostate) and A549 (Androgen receptor positive, human alveolar carcinoma-derived cell line with type II pneumonocyte properties) cells were seeded in 12-well plates (2×10^5 cells per well) in phenol red free RPMI-1640 and DMEM media (Lonza), supplemented with 5% and 2% double charcoal stripped FCS (First Link UK) respectively, and 2 mM I-glutamine, 100 units/ml penicillin and […] streptomycin (Sigma). Charcoal stripping was required to remove residual traces of hormones (Sedelaar et al, (2009)). Cells were treated with 0-100 nM dihydrotestosterone (DHT, Sigma) for 6 hrs. RNA was extracted using TRIzol (Thermo Fisher Scientific) and reverse transcribed (LunaScript RT Supermix Kit, NEB). TMPRSS2 and ACE2 expression was quantified using qPCR (LightCycler 96, Roche) and the data normalized to an internal control (L19).
# [8] = system: TMPRSS2; conditions: 6 hrs; for relative expression of TMPRSS2: LNCaP
# Method: as §2
# [9] = system: TMPRSS2; format: cell-based, human; conditions: for TMPRSS2 protein expression: relative to non-DHT stimulated control; remark: listed apart in the source
# Method: as §1
# [10] = system: TMPRSS2; experiment: TMPRSS2 protein levels in A549 in full media (SDS-PAGE blot, densitometry); format: cell-based, human; conditions: A549, full media (10% FCS), 72 hrs
# Method: A549 were seeded in 6-well plates at a density of 1×10^6 per well. Cells were incubated in DMEM media (Lonza), supplemented with 10% FCS (HyClone) and 2 mM !-glutamine, 100 units/ml penicillin and 100 mg/ml streptomycin (Sigma). […] Cells were treated with 0-1 μM SA Inhibitor (SEQ ID NO: 2) or 10 μM Enzalutamide (ENZA, Sigma) for 72 hrs. Cells were harvested and proteins separated using SDS-PAGE. Blots were probed with antibodies specific for TMPRSS2 (ab92323, Abcam) and α-tubulin (B-5-1-2, Sigma). Protein levels were visualized using a chemiluminescence imaging system (Fusion FX, Vilber). Densitometry was performed using Image J and TMPRSS2 levels normalized to the internal control (Tubulin).
# [11] = system: NETosis in Neutrophils (H3.1 nucleosomes); experiment: NETosis quantified by release of H3.1 nucleosomes from stimulated neutrophils; conditions: 4 hours
# Method: The ability of SA Inhibitor to reduce NETosis in Neutrophils stimulated by lipopolysaccharide (LPS, Sigma Aldrich, Product Number L4391-1MG) alone or in combination with Epidermal growth factor (Sigma Aldrich, Product Number SRP3027-500UG) was compared to the efficacy of a Src kinase Inhibitor (PP2, Sigma Aldrich, Product Number P0042-5MG) and a PAD4 inhibitor (GSK484, Cambridge Bioscience UK, Product Number CAY17488-1 mg) which is known to down regulate NETosis by preventing citrullination of histone proteins. […]
# Tube-2 was placed into the magnet and after 10 minutes incubation the clear fraction (enriched cell suspension) collected by single pipette and transferred into a fresh 50 ml conical falcon tube (Tube-3) which was placed back into the magnet for a final, third separation. The clear fraction, containing purified, isolated neutrophils was transferred into a fresh 50 ml conical falcon tube (Tube-4) and the neutrophil cell Number, % viability and yield determined by cell counting and Trypan blue exclusion. […]
# [12] = Patient case, flare up of Chron's disease, dry powder inhaler (second Example 14); format: in vivo, human; conditions: one metered dose (1 mg/kg) each morning, after eight days
# Method: […] […] The patient is advised to take one metered dose (1 mg/kg) each morning until symptoms abate.
# [13] = system: SARS-COV-2 infection; experiment: Patient case, standalone SA inhibitor to reduce viral load (Example 12); format: in vivo, human; conditions: 4 mg/kg once daily sub-cutaneous, after a few days
# Text: A patient is brought into the hospital suffering from respiratory flu like symptoms. A blood sample is taken from the patient, who is confirmed by PCR analysis of viral RNA to have a SARS-COV-2 infection. […] Administration of the peptide continues until the patient is confirmed to be virus free by PCR.
# [14] = system: COVID-19 patient derived neutrophils (NETosis); experiment: Live cell imaging of NETosis in COVID-19 patient derived neutrophils (Example 8); format: cell-based, human; conditions: neutrophils from a SARSCoV-2 patient in intensive care
# [15] = system: COVID-19 virus infection; experiment: Patient case, standalone SA inhibitor, viral load and NETosis (Example 13); format: in vivo, human; conditions: 4 mg/kg once daily sub-cutaneous
# [16] = system: Neutrophils (NETosis); experiment: Live cell imaging of IL8 triggered NETosis (Example 7); format: cell-based, human
# Method: In a similar experiment to that described in Example 5, IL8 (Merck, Product Number 11645-10UG) is used to activate NETosis in response to LPS using a similar checkerboard configuration as shown in Table 4 (working IL6 concentrations 0, 1, 10 and 100 nM).
# [17] = system: Neutrophils (NETosis); experiment: Live cell imaging of IL6 triggered NETosis (Example 6); format: cell-based, human
# Method: In a similar experiment to that described in Example 5, IL6 (Merck, Product Number H7416-10UG) is used to activate NETosis in response to LPS using a similar checkerboard configuration as shown in Table 4 (working IL6 concentrations 0, 10, 50 and 100 ng/mL).
# [18] = system: Staphylococcus aureus infection; experiment: Patient case, bacterial infection with septic shock (Example 10); format: in vivo, human; conditions: 4 mg/kg sub-cutaneous once daily, antibiotics also administered, after a few days
# Method: A patient is seen in the Emergency Room. The patient is running a temperature of 102° F. with a heart rate exceeding 90 beats/minute and rapid breathing. Septic shock is confirmed based on the requirement for vasopresser administration to maintain a mean arterial pressure of 65 mmHg and serum lactate level over 2 mmol/L. The patient is noted to be suffering from impaired kidney function. […] A Staphylococcus aureus infection is confirmed, and antibiotics administered. […] The peptide is continued to be administered once daily to the patient until the patient is recovered.
# [19] = Patient case, sterile inflammatory response following trauma (Example 11); format: in vivo, human; conditions: 4 mg/kg sub-cutaneous once daily, post traumatic sepsis, after a few days
# Text: The patient is admitted to an intensive care unit and placed in an induced coma. […] The patients' cultures fail to reveal a bacterial infection. After a few days of once daily administration of the peptide, markers of Systematic Inflammatory Response Syndrome (SIRS), including temperature, heart rate and breathing rate improve. The peptide is continued to be administered until SIRS markers have returned to normal.
# Src kinase, sequence (P12931 whole entry): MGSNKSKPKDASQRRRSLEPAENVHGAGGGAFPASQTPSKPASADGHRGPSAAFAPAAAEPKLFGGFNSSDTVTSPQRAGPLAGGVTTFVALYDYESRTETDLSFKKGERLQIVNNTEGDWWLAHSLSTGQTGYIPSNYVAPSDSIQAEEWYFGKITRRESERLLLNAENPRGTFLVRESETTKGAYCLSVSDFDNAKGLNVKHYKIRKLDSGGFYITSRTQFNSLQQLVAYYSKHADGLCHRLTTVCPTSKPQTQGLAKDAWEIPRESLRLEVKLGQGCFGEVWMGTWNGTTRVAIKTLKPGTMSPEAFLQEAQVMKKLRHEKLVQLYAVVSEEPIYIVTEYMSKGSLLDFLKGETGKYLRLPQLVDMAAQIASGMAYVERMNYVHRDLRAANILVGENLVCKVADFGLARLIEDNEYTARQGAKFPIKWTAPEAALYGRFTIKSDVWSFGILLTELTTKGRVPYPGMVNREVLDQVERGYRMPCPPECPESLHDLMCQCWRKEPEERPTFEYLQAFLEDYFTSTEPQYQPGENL
compound,measurement,setting,value
O=C(O)c1cccnc1 [Niacin],Src kinase activity,[1],inhibited
same,P38MAP kinase activity,[2],inhibited
same,chemically induced lung fibrosis,[3],reduced
"COc1cc(C(=O)N2CC[C@@H](O)[C@@H](N)C2)cc2nc(-c3cc4ccccc4n3CC3CC3)n(C)c12 [PAD4i, reference compound]",suppression of NETosis by citrullinated nucleosome marker,"[4]; LPS or LPS and EGF (FIG. 4C, 4D), inhibitor 0.1-10 uM",dose response reduction in citrullinated nucleosomes levels
C[C@]12CCC(=O)C[C@@H]1CC[C@@H]1[C@@H]2CC[C@]2(C)[C@@H](O)CC[C@@H]12 [dihydrotestosterone],level of NETosis (percentage of neutrophils undergoing NETosis),[5],increased with increasing concentrations of dihydrotestosterone
same,TMPRSS2 relative expression,[6],168%
same,relative expression of ACE2,"[7]; A549, 0-100 nM dihydrotestosterone",slight negative correlation with dihydrotestosterone concentration
same,"expression of ACE2, dose response to stimulation","[7]; LNCaP, 0-100 nM dihydrotestosterone","TMPRSS2, but not ACE2, showed a dose response"
same,TMPRSS2 expression increase,"[8]; A549, 1 nM dihydrotestosterone, compared to cells grown in the absence of dihydrotestosterone",over 2 ×
same,relative expression of TMPRSS2,"[8]; 0.1 nM dihydrotestosterone, compared to cells grown in the absence of dihydrotestosterone",approximately 3 ×
same,relative expression of TMPRSS2,"[8]; 10 nM dihydrotestosterone, compared to the control",6 ×
same,TMPRSS2 relative expression,[9],120.9%
"CNC(=O)c1ccc(N2C(=S)N(c3ccc(C#N)c(C(F)(F)F)c3)C(=O)C2(C)C)cc1F [enzalutamide, Enzalutamide, reference compound]",expression of TMPRSS2 protein,[10]; 10 μM Enzalutamide,did not achieve down regulation
Ac-Pro-Pro-Pro-His-Pro-His-Ala-Arg-Ile-Lys-NH2 (Ac-PPPHPHARIK-NH2) [SA Inhibitor],effect on DHT increased NETosis,"[5]; 20 ug/mL LPS trigger plus DHT, SA Inhibitor 1 nM-1 mM, 30 minutes preincubation",This increase is reversed
same,H3.1 NETosis derived nucleosome levels,"[11]; LPS in combination with EGF, without inhibitor 641.9 ng/mL, inhibitor concentration not stated",254.2 ng/mL
same,H3.1 nucleosomes released,"[11]; LPS trigger, 0.1 uM SA Inhibitor, LPS alone 523.2 ng/mL",339.4 ng/mL
same,citrullinated nucleosomes,"[4]; LPS trigger, 0.1 uM SA Inhibitor, LPS alone 158 ng/mL",126.5 ng/mL
same,citrullinated nucleosomes,"[4]; LPS trigger, 10 uM SA Inhibitor, LPS alone 158 ng/mL",66.6 ng/mL
same,citrullinated nucleosomes,"[4]; combined LPS and EGF, 0.1 uM SA Inhibitor, without inhibitor 208.5 ng/mL",111.1 ng/mL
same,expression of TMPRSS2 protein,[10]; 0-1 μM SA Inhibitor,decreased expression up to 10 nM SA Inhibitor followed by a progressive increase up to 1 μM
same,Chron's disease flare up outcome,[12],goes back into remission
same,viral load as determined by PCR,[13],lower than what would have been expected in the absence of the administration of the peptide
same,effect on EGF suppression of TMPRSS2 expression,"[6]; EGF alone and with DHT, cell line not specified (LNCaP and A549 tested)",reversed this inhibitory effect
same,TMPRSS2 protein expression,"[6]; LNCaP, SA Inhibitor in the absence of DHT stimulation, 72 hrs",58.7%
same,TMPRSS2 protein expression,"[6]; LNCaP, SA Inhibitor with DHT stimulation (1 nM), 72 hrs",60.4%
same,level of NETosis,[14],shown to decrease in the treated neutrophils
same,lung function / SpO2,[15],improved lung function with a higher measured SpO2 level
same,"viral load, as measured by PCR",[15]; after a few days,reduced and lower than would be expected in the absence of the peptide
same,effect on IL8 increased NETosis,"[16]; LPS trigger plus IL8, SA Inhibitor checkerboard as Table 4",This increase is reversed
same,effect on IL6 increased NETosis,"[17]; LPS trigger plus IL6, SA Inhibitor checkerboard as Table 4",This increase is reversed
same,TMPRSS2 protein expression,"[9]; A549, SA Inhibitor in the absence of DHT stimulation, 72 hrs",77.6%
same,TMPRSS2 protein expression,"[9]; A549, SA Inhibitor with DHT stimulation (1 nM), 72 hrs",70.2%
same,kidney function,[18],returns to normal
same,"markers of SIRS (temperature, heart rate, breathing rate)",[18],improve
same,"markers of SIRS (temperature, heart rate, breathing rate)",[19],improve
"EGF: Epithelial Growth Factor (EGF, Sigma) (NSDSECPLSHDGYCLHDGVCMYIEALDKYACNCVVGYIGERCQYRDLKWWELR; UniProt P01133 971-1023, looked up) [reference compound]",TMPRSS2 relative expression,"[6]; LNCaP, 100 ng/ml EGF, 72 hrs",62.8%
same,TMPRSS2 relative expression,"[9]; A549, 100 ng/ml EGF, 72 hrs",797%
IL6: IL6 (Merck) used to activate NETosis in response to LPS [reference compound],level of NETosis,"[17]; LPS trigger, IL6 0, 10, 50 and 100 ng/mL",increased with increasing concentrations of IL6
IL8: IL8 (Merck) used to activate NETosis in response to LPS [reference compound],level of NETosis,"[16]; LPS trigger, IL8 0, 1, 10 and 100 nM",increased with increasing concentrations of IL8

# From US20230226138A1, “COMPOSITIONS AND METHODS FOR TREATING INFECTIONS AND NETOPATHY” (Black Cat Bio Limited, priority 2020, published 2023)
